Results reported in article PMC6981454, “Promising 2,6,9-Trisubstituted Purine Derivatives for Anticancer Compounds: Synthesis, 3D-QSAR, and Preliminary Biological Assays” (International Journal of Molecular Sciences, 2019).
Like-named read-outs stand apart in the source and are kept apart here.

Assays:
Format in all cases: cell-based, human
NCI-H460 = assay: MTT cytotoxicity assay, 72 h; settings: for Experimental pIC50 (NCI-H460): -logIC50 in molar concentration
Procedure: (§1) In our study, the human cancer cell lines used were CFAPC- 1 (pancreatic adenocarcinoma); NCI-H460 (large cell lung); HL-60 (acute promyelocytic leukaemia); CACO2 (colorectal adenocarcinoma); HCT-116 (colorectal carcinoma); K562 (chronic myeloid leukaemia); MCF-7 (breast adenocarcinoma); and MRC-5 control cells (normal fibroblasts).
(§2) CFAPC-1, NCI-H460 H1975, HL-60, HCT-116, CACO2, K562, MCF-7, and MCR-5 were grown and maintained in RPMI 1640 and DMEM F12 as appropriate with 10% fetal bovine serum, 100 UI/mL penicillin–streptomycin, and cultured al 37 °C in 5% CO2 humidified atmosphere. Control cultures were treated with dimethyl sulfoxide (1%) alone at the same concentration as in the purine derivatives treatment. Cell viability was determined by trypan blue dye exclusion. Cell numbers were counted in hemocytometer by light microscopy.
(§3) Cytotoxicity assays were performed by using the MTT reduction method as described in the literature. Briefly, cancer cell lines were plated in a flat-bottom 96-wells plate at 1 × 10^4 cells per well density. Then, the cells were incubated with synthetized compounds at different concentrations (from 0.1 to 100 µM) in 200 µL of 10% fetal bovine serum-RPMI or EMEM culture medium at 37 °C for 72 h. Then, 10 µL of MTT was added at a final concentration of 0.5 mg/mL, incubated at 37 °C for 4 h, and then solubilized with 10% sodium dodecyl sulphate (SDS) in 0.1 mM HCl and incubated overnight at 37 °C. Formazan formation was measured at 570 nm in a multi-well reader (StatFax 4200).

HCT-116 = assay: MTT cytotoxicity assay, 72 h
Procedure: as §1, §2, §3

HL-60 = assay: MTT cytotoxicity assay, 72 h; settings: for Experimental pIC50 (HL-60): -logIC50 in molar concentration
Procedure: as §1, §2, §3

CFPAC-1 = assay: MTT cytotoxicity assay, 72 h
Procedure: as §1, §2, §3

K562 = assay: MTT cytotoxicity assay, 72 h; settings: MTT, 72 h, IC50 ± SD
Procedure: as §1, §2, §3

MCF-7 = assay: MTT cytotoxicity assay, 72 h; settings: MTT, 72 h, IC50 ± SD
Procedure: as §1, §2, §3

CACO2 = assay: MTT cytotoxicity assay, 72 h
Procedure: Cytotoxicity assays were performed by using the MTT reduction method as described in the literature [23, 37]. Briefly, cancer cell lines were plated in a flat-bottom 96-wells plate at 1 × 10^4 cells per well density. Then, the cells were incubated with synthetized compounds at different concentrations (from 0.1 to 100 µM) in 200 µL of 10% fetal bovine serum-RPMI or EMEM culture medium at 37 °C for 72 h. Then, 10 µL of MTT was added at a final concentration of 0.5 mg/mL, incubated at 37 °C for 4 h, and then solubilized with 10% sodium dodecyl sulphate (SDS) in 0.1 mM HCl and incubated overnight at 37 °C. Formazan formation was measured at 570 nm in a multi-well reader (StatFax 4200).

MRC-5 = assay: MTT cytotoxicity assay, 72 h, normal control cells; settings: normal fibroblasts
Procedure: as §1, §2, §3

HL-60 cells = assay: Cell viability by propidium iodide flow cytometry; settings: HL-60, 50 μM, 24 h, PI staining
Description: Next, in order to determinate the cell death type induced by the most promising compounds, we performed a flow cytometry analysis of cell viability in cell line HL-60 treated with the most promising compounds (selected according to their IC50 values and SI). The HL-60 cancer cells were chosen due to their sensitivity to prepared compounds. […] As a preliminary apoptosis filter, propidium iodide (PI) staining was used through flow cytometry analysis which discriminated a population of viable cells impermeable to PI (PI negative) from necrotic cells PI-permeable (PI positive) and apoptotic cells (the difference of the previous two). The results are shown in Figure 7, illustrating that all purine derivatives tested induced apoptosis on HL-60 cells. Around 40% of apoptotic cells were detected in a culture treated with compounds 7a and 7i, 30% by 7e, 7g, and 7h and 70% by 7d and 7j. […] (For dot plots, see Supplementary Information Figures S1–S3.)
Cell viability was analyzed by flow cytometry as previously described. In this assay, after setting the baseline to exclude cell debris, cells impermeable to propidium iodide (PI negative) are considered as viable. Two populations of PI-permeable dead cells are distinguished based on fluorescence intensity, corresponding to either hypodiploid apoptotic cells or necrotic cells with intact DNA. Here, HL60 cells were incubated with concentrations of 50 µM of each compound for 24 h at 37 °C. Cells were harvested and stained with 10 µg/mL of propidium iodide to determine cell viability. Samples containing roughly 1 × 10^4 cells were evaluated by flow cytometry (FACScanto II; Becton Dickinson, Mountain View, CA) and analyzed using FCS Express v6 software. Three independent biological replicates were performed.

[1] = MTT, 72 h, IC50 ± SD, read-out: IC50 NCI-H460
[2] = MTT, 72 h, IC50 ± SD, read-out: IC50 HL-60
[3] = Homo sapiens, NCI-H460, 72 h, MTT, 72 h, IC50 ± SD, read-out: IC50 NCI-H460
[4] = Homo sapiens, HCT-116, IC50 ± SD
[5] = Homo sapiens, HL-60, 72 h, MTT, 72 h, IC50 ± SD, read-out: IC50 HL-60
[6] = Homo sapiens, HL-60, -logIC50 in molar concentration, Table S1, read-out: Experimental pIC50 (HL-60) (converted)
[7] = Homo sapiens, CFPAC-1, IC50 ± SD
[8] = Homo sapiens, Caco-2, IC50 ± SD
[9] = Homo sapiens, NCI-H460, -logIC50 in molar concentration, Table S2, read-out: Experimental pIC50 (NCI-H460) (converted)

CCn1cnc2c(-c3ccc(OC(F)(F)F)cc3)nc(NCC3CCCCC3)nc21 [4c, N-(cyclohexylmethyl)-9-ethyl-6-(4-(trifluoromethoxy)phenyl)-9H-purin-2-amine]
Experimental pIC50 (NCI-H460) (NCI-H460; Table S2): 4.1938 M
IC50 (NCI-H460; [1]): 64 ± 2 µM
IC50 (HCT-116; IC50 ± SD): > 50 µM
Experimental pIC50 (HL-60) (HL-60; Table S1): 4.6021 M
IC50 (HL-60; [2]): 25 ± 5.4 µM
IC50 (CFPAC-1; IC50 ± SD): 67 ± 1 µM
IC50 (K562): > 25 µM
IC50 (MCF-7): > 25 µM
IC50 (CACO2; IC50 ± SD): > 100 µM
IC50 (MRC-5; IC50 ± SD): 60 ± 1 µM

CCCn1cnc2c(-c3ccc(OC(F)(F)F)cc3)nc(NC3CCCC3)nc21 [4e, N-cyclopentyl-9-propyl-6-(4-(trifluoromethoxy)phenyl)-9H-purin-2-amine]
IC50 (NCI-H460; [1]): > 100 µM
IC50 (HCT-116; IC50 ± SD): > 50 µM
Experimental pIC50 (HL-60) (HL-60; Table S1): 4.7447 M
IC50 (HL-60; [2]): 18 ± 4 µM
IC50 (CFPAC-1; IC50 ± SD): > 100 µM
IC50 (K562): > 25 µM
IC50 (MCF-7): > 25 µM
IC50 (CACO2; IC50 ± SD): > 100 µM
IC50 (MRC-5; IC50 ± SD): > 100 µM

CCCn1cnc2c(-c3ccc(OC(F)(F)F)cc3)nc(NC3CCCCC3)nc21 [4f, N-cyclohexyl-9-propyl-6-(4-(trifluoromethoxy)phenyl)-9H-purin-2-amine]
IC50 (NCI-H460; [1]): > 100 µM
IC50 (HCT-116; IC50 ± SD): > 50 µM
Experimental pIC50 (HL-60) (HL-60; Table S1): 5.0088 M
IC50 (HL-60; [2]): 9.8 ± 1.5 µM
IC50 (CFPAC-1; IC50 ± SD): 69 ± 1 µM
IC50 (K562): > 25 µM
IC50 (MCF-7): > 25 µM
IC50 (CACO2; IC50 ± SD): > 100 µM
IC50 (MRC-5; IC50 ± SD): 68 ± 1 µM

CCCn1cnc2c(-c3ccc(OC(F)(F)F)cc3)nc(NCC3CCCCC3)nc21 [4g, N-(cyclohexylmethyl)-9-propyl-6-(4-(trifluoromethoxy)phenyl)-9H-purin-2-amine]
Experimental pIC50 (NCI-H460) (NCI-H460; Table S2): 4.1427 M
IC50 (NCI-H460; [1]): 72 ± 2 µM
IC50 (HCT-116; IC50 ± SD): > 50 µM
Experimental pIC50 (HL-60) (HL-60; Table S1): 4.6778 M
IC50 (HL-60; [2]): 21 ± 5 µM
IC50 (CFPAC-1; IC50 ± SD): 98 ± 5 µM
IC50 (K562): > 25 µM
IC50 (MCF-7): > 25 µM
IC50 (CACO2; IC50 ± SD): > 100 µM
IC50 (MRC-5; IC50 ± SD): > 100 µM

CCCn1cnc2c(-c3ccc(OC(F)(F)F)cc3)nc(NC3CCCCCC3)nc21 [4h, N-cycloheptyl-9-propyl-6-(4-(trifluoromethoxy)phenyl)-9H-purin-2-amine]
IC50 (NCI-H460; [3]): > 100 µM
IC50 (HCT-116; [4]): > 50 µM
IC50 (HL-60; [5]): 14 ± 1 µM
IC50 (HL-60; [6]): 14 µM
IC50 (CFPAC-1; [7]): > 100 µM
IC50 (K562; Homo sapiens, K562, 72 h): > 25 µM
IC50 (MCF-7; Homo sapiens, MCF7, 72 h): > 25 µM
IC50 (CACO2; [8]): > 100 µM
IC50 (MRC-5; Homo sapiens, MRC5, IC50 ± SD): > 100 µM

Clc1nc(N2CCN(c3ccccn3)CC2)c2ncn(C3CCCC3)c2n1 [7b, 2-Chloro-9-cyclopentyl-6-(4-(pyridin-2-yl)piperazin-1-yl)-9H-purine]
IC50 (NCI-H460; [3]): > 100 µM
IC50 (HCT-116; [4]): > 50 µM
IC50 (HL-60; [5]): > 50 µM
IC50 (CFPAC-1; [7]): > 100 µM
IC50 (K562; Homo sapiens, K562, 72 h): 3.06 ± 0.54 µM
IC50 (MCF-7; Homo sapiens, MCF7, 72 h): 5.07 ± 0.9 µM
IC50 (CACO2; [8]): > 100 µM
IC50 (MRC-5; Homo sapiens, MRC5, IC50 ± SD): > 100 µM

Clc1nc(N2CCC(c3ccccc3)CC2)c2ncn(C3CCCC3)c2n1 [7e, 2-Chloro-9-cyclopentyl-6-(4-phenylpiperidin-1-yl)-9H-purine]
IC50 (NCI-H460; [3]): 11 ± 1 µM
IC50 (NCI-H460; [9]): 11 µM
Selectivity Index (SI) MRC-5/NCI-H460 (NCI-H460; IC50 in MRC-5 / IC50 in NCI-H460): > 9.1
IC50 (HCT-116; [4]): > 50 µM
IC50 (HL-60; [5]): 3 ± 0.6 µM
IC50 (HL-60; [6]): 3 µM
Selectivity Index (SI) MRC-5/HL-60 (HL-60; IC50 in MRC-5 / IC50 in HL-60): > 33.3
IC50 (CFPAC-1; [7]): > 100 µM
IC50 (CACO2; [8]): > 100 µM
IC50 (MRC-5; Homo sapiens, MRC5, IC50 ± SD): > 100 µM
apoptotic cells (HL-60 cells): ~30%

Clc1nc(N2CCN(c3ccccc3)CC2)c2ncn(C3CCCC3)c2n1 [7f, 2-Chloro-9-cyclopentyl-6-(4-phenylpiperazin-1-yl)-9H-purine]
IC50 (NCI-H460; [3]): 6.71 ± 0.23 µM
IC50 (NCI-H460; [9]): 6.71 µM
IC50 (HCT-116; [4]): > 50 µM
IC50 (HL-60; [5]): 1.3 ± 0.5 µM
IC50 (HL-60; [6]): 1.3 µM
IC50 (CFPAC-1; [7]): > 100 µM
IC50 (K562; Homo sapiens, K562, 72 h): 4.22 ± 0.27 µM
IC50 (MCF-7; Homo sapiens, MCF7, 72 h): 6.13 ± 0.25 µM
IC50 (CACO2; [8]): > 100 µM
IC50 (MRC-5; Homo sapiens, MRC5, IC50 ± SD): > 100 µM

N.N.[Cl][Pt][Cl] [Cisplatin, reference compound]
IC50 (NCI-H460; MTT, 72 h, IC50 ± SD, listed as cisplatin, read-out: IC50 NCI-H460): 4.8 µM
IC50 (NCI-H460; [1]): 4.77 ± 0.13 µM
IC50 (HCT-116; IC50 ± SD): 3.89 ± 1.3 µM
IC50 (HL-60; [2]): 6.2 ± 0.2 µM
IC50 (CFPAC-1; IC50 ± SD): 3.16 ± 0.1 µM
IC50 (K562): 4.67 ± 0.38 µM
IC50 (MCF-7): 10.9 ± 0.8 µM
IC50 (MRC-5; IC50 ± SD): 6.78 ± 0.18 µM
apoptotic cells (HL-60 cells): 66%

N-cycloheptyl-9-ethyl-6-(4-(trifluoromethoxy)phenyl)-9H-purin-2-amine [4d]
IC50 (NCI-H460; [1]): > 100 µM
IC50 (HCT-116; IC50 ± SD): > 50 µM
Experimental pIC50 (HL-60) (HL-60; Table S1): 4.6778 M
IC50 (HL-60; [2]): 21 ± 1 µM
IC50 (CFPAC-1; IC50 ± SD): > 100 µM
IC50 (K562): > 25 µM
IC50 (MCF-7): > 25 µM
IC50 (CACO2; IC50 ± SD): > 100 µM
IC50 (MRC-5; IC50 ± SD): > 100 µM

N-cyclohexyl-9-ethyl-6-(4-(trifluoromethoxy)phenyl)-9H-purin-2-amine [4b]
IC50 (NCI-H460; [1]): > 100 µM
IC50 (HCT-116; IC50 ± SD): > 50 µM
IC50 (HL-60; [2]): > 50 µM
IC50 (CFPAC-1; IC50 ± SD): > 100 µM
IC50 (K562): > 25 µM
IC50 (MCF-7): > 25 µM
IC50 (CACO2; IC50 ± SD): > 100 µM
IC50 (MRC-5; IC50 ± SD): > 100 µM
